In paper PMC11071266, “The putative proton-coupled organic cation antiporter is involved in uptake of triptans into human brain capillary endothelial cells” (Fluids and Barriers of the CNS, 2024):
Values joined by “and” are separate entries in the source; they are usually repeats but may differ in a detail not shown here. Identical values can stand only once. “Also recorded” adds a separate entry of the source. Like-named read-outs stand apart in the source and are kept apart here.

Columns and labels:
[1] = system: H^+/OC antiporter; assay: Cellular uptake into hCMEC/D3 cells after intra- and extracellular pH manipulation; format: cell-based, human; conditions: for Cellular uptake after intracellular alkalization: acute exposure to 30 mM NH4Cl vs control pH 7.4; for Cellular uptake at extracellular acidification: extracellular pH 6.8 vs pH 7.4; for Cellular uptake at extracellular alkalization: extracellular pH 8.2 vs pH 7.4; for Proton-gradient dependence of uptake: hCMEC/D3 cells; for Cellular uptake after intracellular acidification: preexposure to 30 mM NH4Cl followed by media change vs control
[2] = cited from earlier work; for Strongest basic pKa: extracted from DrugBank
[3] = Physicochemical properties extracted from databases
Description: Triptans are a relatively homogeneous group of drug compounds with similar physicochemical properties, including molecular weights < 400 g/mol and a low to moderate lipophilicity (cLogD values ranging from − 2.1–0.18). […] As a consequence, it is unlikely that triptans cross the brain microvascular endothelium through passive diffusion to a clinically relevant extent. Table 1 summarizes structures and physicochemical properties of the triptans, as well as oxycodone and pyrilamine, which are two prototypical H^+/OC antiporter substrates included in this study.

[4] = system: H^+/OC antiporter; assay: Inhibition of [^3H]-pyrilamine uptake into hCMEC/D3 cells; format: cell-based, human
Procedure: (§1) The immortalized human cerebral microvascular endothelial cell line (hCMEC/D3) was maintained in T75-flasks coated with collagen type I from calf skin (C9791, 18.7 μg/mL) and cultured in EBM®-2 medium (Lonza, Basel, Schweiz) supplemented with 5% (v/v) fetal bovine serum (FBS, 10270, Life Technologies, CA, USA or SH3008803, ThermoFisher Scientific, MA, USA), 100 U/mL penicillin and 100 μg/ml streptomycin, 1 ng/mL human basic fibroblast growth factor (bFGF), 1.4 μM hydrocortisone, 1% (v/v) chemically defined lipid concentrate (ThermoFisher Scientific, MA, USA), 10 mM N-2-hydroxyethylpiperazine-N-2-ethane sulfonic acid (HEPES) and 5 μg/mL ascorbic acid (5% CO2, 37 °C). […] For experiments, cells were seeded into 24-well plates (6.7·10^4 cells/cm^2) and cultured for four continuous days. The cells were used for experiments between passage 3–31.
(§2) The cells were equilibrated in hHBSS with or without inhibitor for 15 min (37 °C, 90 rpm). The compound of interest was spiked into the hHBSS followed by incubation for a designated time. The timeframe of the initial uptake rate was validated into hCMEC/D3 cells (Fig. 1 and Additional file 1). The experiment was terminated by washing three times with ice-cold HBSS supplemented with 0.0375% (v/v) sodium bicarbonate.
The inhibitory constant at 50% inhibition (IC50) was determined by fitting the uptake flux (Jss) as function of the logarithmic inhibitor concentration to Eq. 2.2 Jss=Jmin+(Jmax-Jmin)/1+10^logIC50-InH where [I] is the inhibitor concentration, nH is the Hill coefficient.
The hCMEC/D3 cells were used for [^3H]-pyrilamine inhibition studies between passage 3–6 (pyrilamine, oxycodone), 16–18 (almotriptan), 7–13 (eletriptan), 25–27 (frovatriptan), 3–8 (naratriptan), 16–18 (rizatriptan), 12–14 (sumatriptan), and 14–16 (zolmitriptan).
The cells were permeabilized using 0.1% (v/v) Triton X-100 in ultrapure water (ELGA, Buckinghamshire, England) for 10 min at room temperature. Thereafter, the cells were scraped off the bottom of the wells, transferred to scintillation vials, and mixed with 2 mL of Ultima Gold 241 TM (Perkin Elmer, MA, USA). The samples were analyzed using a Tri-Carb 2910 TR Liquid Scintillation Analyzer (Perkin Elmer, MA, USA).

[5] = system: H^+/OC antiporter; assay: Concentration-dependent cellular uptake into hCMEC/D3 cells (Michaelis-Menten kinetics); format: cell-based, human; conditions: for Concentration-dependent uptake (saturability): hCMEC/D3 cells, tested concentration range; for Association with H^+/OC antiporter: summary of uptake and inhibition studies in hCMEC/D3 cells; for Apparent Km / Jmax / Km: uptake into hCMEC/D3 cells; for Km: read-out: Apparent Km
Procedure: as §1, §2
To assess the concentration-dependent uptake, the uptake flux was fitted to the Michaelis–Menten equation, Eq. 1.1 Jss=Jmax[S]/Km+[S] where Jss represents flux under steady state, Jmax is the maximal flux, [S] is the substrate concentration, and Km is the Michaelis–Menten constant.
The hCMEC/D3 cells were used for concentration-dependent uptake studies between passage 21–23 (pyrilamine), 11–13 (oxycodone), 12–14 (almotriptan), 16–18 (eletriptan), and 12–14 (sumatriptan).
(§3) The cells were permeabilized using 50% (v/v) acetonitrile (HPLC LC–MS grade, VWR International S.A.S, Soeborg, Denmark) in ultrapure water (ELGA, Buckinghamshire, England) for 10 min at room temperature. Thereafter, the cells were scraped off the bottom of the wells and transferred to HPLC vials. Samples from bidirectional transport experiments were transferred directly into HPLC vials. All samples were stored at – 18 °C for later analysis. Calibration curves with standards in the range of 1 or 5–1000 ng/mL were dissolved in 50% (v/v) acetonitrile in ultrapure water (ELGA, Buckinghamshire, England), or in hHBSS(-) for analysis of bidirectional transport samples.
(§4) Liquid chromatography tandem mass spectrometry (LC–MS/MS) were performed using electrospray ionization in positive mode on a micromass Quattro micro™ API tandem quadrupole mass spectrometer (Waters, MA, USA) or an Ultivo triple quadrupole mass spectrometer (Agilent Technologies, CA, USA) coupled to Agilent HPLC system 1100 Series or 1260 Series (Agilent Technologies, CA, USA California), respectively. Applied columns were an InfinityLab Poroshell 120 EC-C18 (3.0 × 50 mm; 2.7 micron, Agilent Technologies, CA, USA) or a Kinetex 2.6 μm XB-C18 (100 Å, 100 × 4.6 mm, Phenomenex Inc., CA, USA). An overview of applied HPLC and MS/MS parameters can be found in Additional file 2 and Additional file 3, respectively. The data acquisition software was MassLynx (V4.1, Waters, MA, USA).
The protein content of hCMEC/D3 cells was determined for normalization purposes. Cells were washed with ice-cold phosphate buffered saline following cell lysis in cell extraction buffer (FNN0011, Thermo Fisher Scientific, MA, USA) supplemented with 1 × cOmplete™ Protease Inhibitor Cocktail (04693116001, Roche, Basel, Schweiz), 1 mM phenylmethylsulfonyl fluoride, and […] for 30 min on ice.

[6] = system: H^+/OC antiporter; assay: Cellular uptake into hCMEC/D3 cells in absence or presence of pyrilamine or oxycodone; format: cell-based, human; conditions: for Inhibition by oxycodone (of the compound's uptake) / Inhibition by pyrilamine (of the compound's uptake): triptan 50 µM, asterisks = P level; for Inhibition by oxycodone (of the compound's uptake): 500 µM oxycodone; for Inhibition by pyrilamine (of the compound's uptake): 500 µM pyrilamine
Procedure: as §2
The hCMEC/D3 cells were used for time-dependent uptake studies between passage 3–5 (pyrilamine), 7–9 (oxycodone), 6–8 (almotriptan), and 24–31 (eletriptan).
The hCMEC/D3 cells were used for uptake studies of almotriptan, eletriptan, and sumatriptan in the presence of pyrilamine and oxycodone between passage 21–23.
as §3, §4

[7] = system: H^+/OC antiporter; set-up: method as in PMID 35955563; conditions: trans-stimulation in hCMEC/D3 cells; cited from earlier work
[8] = system: organic cation transporter 1 (OCT1); set-up: method as in PMID 35955563; conditions: cited from earlier work
[9] = system: P-gp; set-up: method as in PMID 12814962; conditions: brain Kp in wild type and mdr1a knockout mice; cited from earlier work
[10] = target: P-gp (Homo sapiens, UniProt P08183); set-up: expressed in transfected cells; host or cells: IPEC-J2 (porcine ileum epithelial cell line); method as in PMID 12438524; conditions: MDR1-MDCKII cell line; cited from earlier work
[11] = [^3H]-pyrilamine 1 µCi/mL, 48 nM, read-out: Apparent IC50 on [^3H]-pyrilamine uptake
[12] = read-out: Apparent IC50 on [^3H]-pyrilamine uptake, [^3H]-pyrilamine 1 µCi/mL, 48 nM

Chain of P-gp (Homo sapiens, UniProt P08183) (P08183 whole entry): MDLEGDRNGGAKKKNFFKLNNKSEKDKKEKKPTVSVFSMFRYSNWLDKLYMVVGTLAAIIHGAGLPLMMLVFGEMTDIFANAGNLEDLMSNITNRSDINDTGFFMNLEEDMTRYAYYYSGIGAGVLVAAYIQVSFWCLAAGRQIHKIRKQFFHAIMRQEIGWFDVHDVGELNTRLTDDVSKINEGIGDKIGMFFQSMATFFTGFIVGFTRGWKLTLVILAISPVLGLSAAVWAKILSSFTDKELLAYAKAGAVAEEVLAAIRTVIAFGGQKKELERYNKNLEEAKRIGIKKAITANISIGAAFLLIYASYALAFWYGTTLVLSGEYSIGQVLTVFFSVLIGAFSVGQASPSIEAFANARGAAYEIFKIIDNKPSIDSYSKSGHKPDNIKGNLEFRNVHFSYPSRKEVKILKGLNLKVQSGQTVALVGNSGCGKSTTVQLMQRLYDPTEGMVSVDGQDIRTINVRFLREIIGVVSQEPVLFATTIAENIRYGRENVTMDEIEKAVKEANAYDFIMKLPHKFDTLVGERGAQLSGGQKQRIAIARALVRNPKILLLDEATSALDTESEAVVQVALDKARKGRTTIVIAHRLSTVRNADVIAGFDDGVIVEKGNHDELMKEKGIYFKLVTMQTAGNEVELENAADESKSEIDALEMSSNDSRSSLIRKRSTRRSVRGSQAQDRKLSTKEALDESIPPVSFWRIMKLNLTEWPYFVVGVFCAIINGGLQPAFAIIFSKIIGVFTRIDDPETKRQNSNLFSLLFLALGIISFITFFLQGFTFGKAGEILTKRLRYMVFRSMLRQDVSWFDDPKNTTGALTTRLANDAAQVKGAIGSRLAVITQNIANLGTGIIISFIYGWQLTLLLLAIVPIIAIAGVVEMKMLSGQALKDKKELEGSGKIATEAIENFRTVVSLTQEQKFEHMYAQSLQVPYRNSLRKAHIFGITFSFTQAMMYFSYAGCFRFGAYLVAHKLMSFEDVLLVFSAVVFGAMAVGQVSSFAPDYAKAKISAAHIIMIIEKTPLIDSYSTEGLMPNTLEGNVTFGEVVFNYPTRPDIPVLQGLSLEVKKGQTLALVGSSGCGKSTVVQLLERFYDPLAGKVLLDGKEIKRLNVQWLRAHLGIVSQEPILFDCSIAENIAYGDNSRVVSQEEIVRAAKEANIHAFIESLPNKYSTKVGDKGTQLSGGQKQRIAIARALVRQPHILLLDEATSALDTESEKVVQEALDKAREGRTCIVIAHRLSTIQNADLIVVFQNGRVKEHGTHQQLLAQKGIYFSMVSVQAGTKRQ

Compound | Cellular uptake after intracellular alkalization [1] | Cellular uptake at extracellular acidification [1] | Cellular uptake at extracellular alkalization [1] | Cellular uptake after intracellular acidification [1] | Strongest basic pKa [2] | cLogD pH 7.4 ([2]; extracted from ChemSpider) | Overall charge pH 7.4 [3] | IC50 [4, 11] | cLogD pH 7.4 [2] | further results
CN(C)CCc1c[nH]c2ccc(CS(=O)(=O)N3CCCC3)cc12 [Almotriptan] | decreased | reduced | increased | statistically significant increase | 9.6 | 0.3 | Positive | ~305 µM and 305 µM | – | Proton-gradient dependence of uptake [1]: yes; Concentration-dependent uptake (saturability) [5]: did not show saturable uptake; Association with H^+/OC antiporter [5]: (substrate) decent inhibitor; Apparent Km [5]: not saturable (in tested range); Inhibition by oxycodone (of the compound's uptake) [6]: no; Inhibition by oxycodone (of the compound's uptake) ([6]; listed as almotriptan): did not inhibit; Inhibition by pyrilamine (of the compound's uptake) [6]: slightly inhibited; also recorded: yes (*)
CN[C@@H]1CCc2[nH]c3ccc(C(N)=O)cc3c2C1 [Frovatriptan] | – | – | – | – | – | – | Positive | – | − 1.5 | H^+/OC antiporter substrate [7]: did not appear to be H^+/OC antiporter substrate candidates; OCT1 substrate [8]: substrates of OCT1; Apparent IC50 on [^3H]-pyrilamine uptake ([4]; [^3H]-pyrilamine 1 µCi/mL, 48 nM): did not exhibit sufficient inhibition
CNS(=O)(=O)CCc1ccc2[nH]cc(C3CCN(C)CC3)c2c1 [Naratriptan] | – | – | – | – | 9.2 | – | Positive | 460 ± 41 µM | – | P-gp substrate [9]: substrates of P-gp
COc1ccc2c3c1O[C@H]1C(=O)CC[C@@]4(O)[C@@H](C2)N(C)CC[C@]314 [Oxycodone] | reduced cellular uptake | reduced cellular uptake | increased cellular uptake | increased cellular uptake | 8.8 | 0.5 | Positive | – | – | IC50 [4, 12]: 225 ± 57 µM; IC50 ([4]; read-out: Apparent IC50 on [^3H]-pyrilamine uptake, [^3H]-pyrilamine 1 µCi/mL, 48 nM, listed as oxycodone): ~225 µM; Jmax [5]: 5.3 ± 1.0 nmol·min^−1·mg protein^−1; Km ([5]; listed as oxycodone): ~130 µM; Km [5]: 130 ± 57 µM; Time-dependent uptake in presence of 1000 µM pyrilamine ([6]; oxycodone 500 µM): reduced
COc1ccc(CN(CCN(C)C)c2ccccn2)cc1 [Pyrilamine] | reduced cellular uptake | reduced cellular uptake | increased cellular uptake | increased cellular uptake | – | – | Positive | 11 ± 6 µM | 1.1 | IC50 ([4]; [^3H]-pyrilamine 1 µCi/mL, 48 nM, listed as pyrilamine, read-out: Apparent IC50 on [^3H]-pyrilamine uptake): ~11 µM; Jmax [5]: 5.1 ± 0.7 nmol·min^−1·mg protein^−1; Km ([5]; listed as pyrilamine): ~93 µM; Km [5]: 93 ± 17 µM; Time-dependent uptake in presence of 500 µM oxycodone ([6]; [^3H]-pyrilamine 48 nM): reduced
CN(C)CCc1c[nH]c2ccc(Cn3cncn3)cc12 [Rizatriptan] | – | – | – | – | – | – | Positive | 719 ± 243 µM | 0.04 | P-gp substrate [9]: substrates of P-gp
CNS(=O)(=O)Cc1ccc2[nH]cc(CCN(C)C)c2c1 [Sumatriptan] | decreased | reduced | increased | decreased uptake | – | – | Positive | – | – | Proton-gradient dependence of uptake [1]: yes; IC50 [4, 12]: 1460 ± 189 µM; Concentration-dependent uptake (saturability) [5]: linear increase as function of increasing concentrations; Association with H^+/OC antiporter [5]: (substrate) very poor inhibitor; Apparent Km [5]: not saturable (in tested range); Inhibition by oxycodone (of the compound's uptake) [6]: yes (***); Inhibition by oxycodone (of the compound's uptake) ([6]; listed as sumatriptan): inhibited the uptake of sumatriptan; Inhibition by pyrilamine (of the compound's uptake) [6]: yes (**); Inhibition by pyrilamine (of the compound's uptake) ([6]; listed as sumatriptan): inhibited the uptake of sumatriptan
CN(C)CCc1c[nH]c2ccc(C[C@H]3COC(=O)N3)cc12 [Zolmitriptan] | – | – | – | – | – | 0.4 | Positive | 1730 ± 1210 µM | – | H^+/OC antiporter substrate [7]: did not appear to be H^+/OC antiporter substrate candidates; OCT1 substrate [8]: substrates of OCT1; ER [10]: 2.48
